Results: patent US20220370553A1, “PREBIOTIC-INDUCED ANTI-TUMOR IMMUNITY” (Sanford Burnham Prebys Medical Discovery Institute, priority 2019, published 2022)

How the values were obtained:
[1] = tested on: Bacteroides spp.; experiment: Anaerobic fecal cultures with 1% prebiotic, 16S rDNA quantification; assay type: cell-based; details: fecal cultures of 12 healthy human subjects, 3-4 days at 37° C.
Method: Fecal samples derived from 12 healthy human subjects were cultivated in the presence or absence of 1% prebiotic. 16S rDNA sequences corresponding to Bifidobacterium, Bacteroides and Akkermansia muciniphila were quantified. Data are representative of three independent experiments. Graphs show the mean±s.e.m. *P<0.05, **P<0.005, ***P<0.001, ****P<0.0001 by one-way ANOVA with Tukey's correction.
Anaerobic fecal cultures. […] Anaerobic cultures (9% H2, 81% N2) were grown statically for 3-4 days at 37° C. and grown to approximate saturation.
Chemically-defined medium (CDM). CDM contains 50 mM HEPES, 2.2 mM KH2PO4, 10 mM Na2HPO4, 60 mM NaHCO3, 4 mM of each amino acid, except leucine (15 mM), 10 mL ATCC, Trace Mineral Supplement. CDM contained nucleoside bases (100 mg/L), inosine, xanthine, adenine, guanine, cytosine, thymidine and uracil (400 mg/L). CDM contained choline (100 mg/L), ascorbic acid (500 mg/L), lipoic acid (2 mg/L), hemin (1.2 mg/L) and myo-inositol (400 mg/L). Resazurin (1 mg/L) was added to visually monitor dissolved oxygen. The pH of the media was adjusted to 7.4.
Fecal samples derived from 12 healthy, vegetarian human subjects were cultivated in a chemically-defined medium the presence or absence of 1% prebiotic. Anaerobic cultures (9% H2, 81% N2) were grown statically for 3-4 days at 37° C. and grown to approximate saturation.

[2] = tested on: gut microbiota; assay type: in vivo, C57BL/6 mice; details: in the absence of MEKi
Method: Bacterial DNA extraction and 16S library preparation. […] Mouse fecal pellets were frozen on dry ice, and stored at −80° C. Bacterial DNA was extracted using the QIAmp Fast DNA Stool Mini Kit (Qiagen). To ensure efficient cell lysis, a 5-min bead-beating step using a Mini-Beadbeater-16 was included (Biospec Products, OK, USA). Library preparation for the Illumina MiSeq platform was performed by amplification of the V3-V4 region of the bacterial 16S ribosomal DNA gene using
C. Adapter and barcode sequences for dual indices were used as described by Illumina. PCR clean up steps were performed with QIAquick 96-PCR Clean up kit (Qiagen, Germany), and library quantification was performed using a KAPA Library Quantification Kit for Illumina platforms (KAPA Biosystems, MA, USA). An Experion Automated Gel Electrophoresis System (Bio-Rad, CA, USA) was used to measure the DNA concentration and purity of the pooled libraries. The 16S libraries were sequenced at Novagene (Beijing, China) and the SBP sequencing Core.
16S sequencing data processing. The original FASTQ files from Illumina 250 basepair paired-end sequencing of the samples were processed using a novel 16S amplicon sequencing pipeline HiMap (http://github.com/taolonglab/himap; BioRxiv 565572). The output of HiMap is Operational Strain Unit (OSU) which contains one or more bacterial strains that best match the 16S sequence and cannot be further distinguished. The percentage similarity between the 16S sequence and the aligned region of 16S rRNA genes of the strains in the OSU is indicated. OSUs mapped to the same strains are grouped together (adding read counts) if percentage similarities are within 3%. Read counts are converted into relative abundance as described in HiMap. Log 10-transformed relative abundances were used for comparisons between samples under different experimental conditions.

[3] = tested on: CD8+ T cells; experiment: qRT-PCR of cytokine and chemokine mRNAs in CD8+ T cells in vitro; assay type: cell-based, mice; details: 0.05 or 0.5 mg/ml in vitro; in some conditions
From the text: Data are representative of two independent experiments. Graphs show the mean±s.e.m. *P<0.05, **P<0.005, ***P<0.001, ****P<0.0001 one-way ANOVA with Tukey's correction.
RNA extraction and qRT-PCR analyses. Total RNA was extracted from tumor samples individually using the RNeasy Fibrous Tissue Midi kit (QIAGEN) or cells treated as indicated using High Capacity Reverse Transcriptase kits (Invitrogen) according to the manufacturer's protocol. Purity and concentration of extracted RNA were checked and quantified by reading at 260 and 280 nm in a NanoDrop spectrophotometer (Thermo Fisher). The qRT-PCR analyses were performed using Syber Green RT-PCR kits (Invitrogen) on a Bio-Rad CFX Connect Real-Time system. Expression levels normalized to 18S or Tubb5 controls.

[4] = tested on: MC-38 mouse colorectal cancer cells; experiment: Flow cytometry of tumor-infiltrating immune cells in MC-38 tumors; assay type: in vivo, C57BL/6 mice
Method: Tumor digestion. Tumors were excised, minced, and digested with 1 mg/ml collagenase D (Roche) and 100 μg/ml DNase I (Sigma) at 37° C. for 1 h. Digests were then passed through a 70-μm cell strainer to generate a single-cell suspension. The cells were washed twice with PBS containing 2 mM EDTA, and then stained for flow cytometry.
Flow cytometry. Tumor-derived single-cell suspensions were washed twice with FACS staining buffer, fixed for 15 min with 1% formaldehyde in PBS, washed twice, and resuspended in FACS staining buffer. For intracellular cytokine staining, cells were resuspended in complete RPMI-1640 (containing 10 mM HEPES, 1% non-essential amino acids and L-glutamine, 1 mM sodium pyruvate, 10% heat-inactivated fetal bovine serum (FBS), and antibiotics) supplemented with 50 U/mL IL-2 (NCI), […] brefeldin A (BFA, Sigma), and incubated with phorbol myristate acetate (10 ng/ml) and ionomycin (0.5 μg/ml) at 37° C. The cells were then fixed and permeabilized using a Cytofix/Cytoperm Kit (BD Biosciences) before staining. Antibodies to the following proteins were used: CD45.2 (104), CD8a (53-6.7), CD4 (GK1.5), CD44 (IM7), TNF-α (MP6-XT22), IFN-γ (XMG1.2), CD11c (N418), CD11b (M1/70), MHC class II (M5/114.15.2), PDCA (129c1), and B220 (RA3-6B2) from BioLegend, and antibodies to IL-2 (JES6-5H4) and MHC class I (AF6-88.5.5.3) from eBioscience. All data were collected on an LSRFortessa (BD Biosciences) and analyzed using FlowJo Software (Tree Star).
MC-38 mouse colorectal cancer cells (1×10^6) were inoculated, and diets were continued after inoculation.

Substance: mucin
- relative abundance of Bacteroides spp. [1]: increased
- phylotype group related to Parasutterella excrementihominis [2]: not observed
- taxa increased in relative abundance [2]: primarily increased the relative abundance of taxa mapped in or near Clostridium cluster XIVa
- expression of Granzyme B, CCL4, and CCL5 in CD8+ T cells [3]: enhanced expression
- CD4+ or CD8+ T cells, CD45+ cells, cytokine production, DCs and DC subsets in tumors [4]: No differences
